The values below come from US7074765B2, “Synthetic peptide analogs of Arg-Pro-Pro-Gly-Phe as selective inhibitors of thrombin and thrombin activation of protease activated receptors 1 and 4” (The Regents of the University of Michigan, priority 2003, dated 2006).

Bounds are passed on as bounds.

Test [1] concerns the target T1, recombinant protease activated receptor 1 extracellular domain (rPAR1EC) (Homo sapiens, UniProt P25116).
T1 construct: A portion of the extracellular domain of human PAR1 (Ala^26-Ser^99) (rPAR1EC) was expressed in Escherichia coli; His10-DDDDK (pET19b) (N); made in house; host or cells: E. coli BL21(DE3), pET19b
T1 sequence (P25116 26-99): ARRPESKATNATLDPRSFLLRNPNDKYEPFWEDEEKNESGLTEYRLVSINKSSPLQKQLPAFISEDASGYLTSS
Put plainly: Inhibition of RPPGF-biotin binding to rPAR1EC. Particulars: 5 mM peptide, 50 μM RPPGF-biotin (FIG. 7); listed in decreasing order.

Test [2] deals with PC3 cells. As to the kind of experiment: α-thrombin-induced intracellular calcium mobilization in PC3 cells. The conditions noted are these: 2 nM α-thrombin. It is filed as cell-based. As to the method: FIG. 13 examines the influence of MAP4-TH146 on thrombin-induced calcium mobilization in two prostate cancer cell lines that functionally express PAR 1. In Panel A, the influence of MAP4-TH146 on 2 nM α-thrombin-induced intracellular calcium mobilization in VCaP cells. Calcium flux is abolished by […]. At 6.25 μM MAP4-TH146, there is full recovery of thrombin-induced calcium flux. In Panel B, the influence of MAP4-TH146 on 2 nM α-thrombin-induced intracellular calcium mobilization in PC3 cells. Calcium flux is abolished by 200 μM MAP4-TH146. At 1.56 μM MAP4-TH146, calcium flux recovers.
A general note: Calcium flux is commonly read through the fluorescence of an indicator in the cells.

Test [3] has as its system platelets in platelet-rich plasma. As to the kind of experiment: γ-thrombin-induced platelet aggregation in platelet-rich plasma. It is filed as cell-based, human. As to the method: Fresh whole blood was collected and mixed with 0.013 M sodium citrate and platelet-rich plasma was prepared according to the method of Meloni et al., J. Biol. Chem. 266, 6786 (1991). Platelet-rich plasma with a normalized platelet count between 2–2.5×10^8 platelets/ml was added to a cuvette of an aggregometer (Chronlog Corp., Havertown, Pa.), standardized using the protocol of Meloni et al., supra. Peptides to be examined were added to the cuvette and the mixture stabilized for a few moments. Once the baseline was stabilized, γ-thrombin (10–70 nM) (Haematologic Technologies, Essex Junction, Vt.) was added to determine the minimal concentration of the agonist necessary to achieve full platelet aggregation. All investigations with peptides were performed using threshold concentrations of γ-thrombin. Aggregation was allowed to proceed for 5 minutes before stopping. When ADP-induced platelet aggregation studies were performed, 1–5 μM ADP (Sigma) was added to the cuvette containing platelet-rich plasma.

For test [4], the target named is T2, thrombocytin cleavage of recombinant human PAR1 extracellular domain (Homo sapiens, UniProt P25116).
T2 construct: A portion of the extracellular domain of human PAR1 (Ala^26-Ser^99) (rPAR1EC) was expressed in Escherichia coli; His10-DDDDK (pET19b) (N); made in house; host or cells: E. coli BL21(DE3), pET19b (rPAR1EC)
T2 sequence (P25116 26-99): T1 sequence (P25116 26-99)
As to the kind of experiment: Inhibition of thrombocytin-induced cleavage of rPAR1EC. It is filed as biochemical. Particulars: 16.7 nM thrombocytin, 45 min, 37° C.; below concentration that blocks the enzyme's proteolytic activity. As to the method:
(§1) Thrombocytin is a snake venom enzyme that activates platelets by cleaving PAR1 at the thrombin cleavage site (Santos et al., FEBS Letters. 18, 3570–3577 (2000)). […] The ability of MAP4-rOicPGF to block thrombocytin cleavage of rPAR1EC was performed as follows. One μg of rPAR1EC in 0.01 mM Tris-HCL, 0.2 M NaCl, pH 8.0 was incubated at 37° C. for 15 min or 45 min with 1 nM of α-thrombin or 0.5 μg/mL thrombocytin (16.7 nM), respectively, in the absence or presence of 0.025 to 1 mM MAP4-rOicPGF. The reaction mixture was separated on SDS-PAGE and stained with Coomassie Brilliant Blue. The cleaved gel images were scanned using the software Scion Image, ScionCorp, Frederick, Md.

For test [5], the target named is α-thrombin (Homo sapiens, UniProt P00734). As to the kind of experiment: α-thrombin hydrolysis of chromogenic substrate Sar-Pro-Arg-pNA. It is filed as biochemical. The conditions noted are these: 1 nM α-thrombin; 0–0.5 mM peptide. As to the method: FIG. 10 examines the ability of MAP4-TH146 (β-Ala-Lys-2Lys-4(D-Arg-Oic-Pro-Gly-Phe)) to block thrombin or thrombocytin-induced proteolysis of recombinant extracellular fragment of human PAR1 (rPAR1EC). In the upper Panels, 1 μg of rPAR1EC in 10 mM Tris-HCI, 200 mM NaCl, pH 8.0 was incubated at 37° C. for 15 min or 45 min with 1 nM α-thrombin or 0.5 μg/ml (16.7 nM) thrombocytin, respectively, in the absence or presence of increasing concentrations of MAP4-TH146 (0.05 to 1.0 mM)). In the middle Panel, the ability of α-thrombin (1 nM) to hydrolyze the chromogenic substrate Sar-Pro-Arg-pNA in the presence or absence of 0–0.5 mM MAP4-TH146 was determined. In the bottom Panel, the ability of thrombocytin (16.7 nM) to hydrolyze 1 mM H-D-Phe-Pip-Arg-paranitroanilide (S2238) in the presence or absence of 0–1.0 mM MAP4-TH146 was determined. […] Alternatively, in the bottom Panel, MAP4-TH146 inhibits thrombocytin proteolysis of rPAR1EC at concentrations below that necessary to block the proteolytic activity of the enzyme.

For test [6], the target named is T3, α-thrombin cleavage of recombinant extracellular fragment of human PAR1 (rPAR1EC) (Homo sapiens, UniProt P00734).
T3 construct: A portion of the extracellular domain of human PAR1 (Ala^26-Ser^99) (rPAR1EC) was expressed in Escherichia coli; with 1 nM of α-thrombin or 0.5 μg/mL thrombocytin (16.7 nM); His10-DDDDK (pET19b) (N); made in house; host or cells: E. coli BL21(DE3), pET19b (rPAR1EC)
Put plainly: Inhibition of α-thrombin-induced cleavage of rPAR1EC. The conditions noted are these: 1 nM α-thrombin, 15 min, 37° C. It is filed as biochemical. As to the method: as §1

“β-Ala-Lys-2Lys-4(D-Arg-Oic-Pro-Gly-Phe) [MAP4-rOicPGF]”: the “blocking of RPPGF-biotin binding to rPAR1EC by peptides” value in test [1] is listed as “blocked”. Also, the “effect on thrombin-induced calcium flux” value in test [2] (1.56 μM peptide) is reported as “recovers”; in test [2] (200 μM peptide) it was “abolished”. Besides, the “concentration that abolished γ-thrombin-induced platelet aggregation” value in test [3] (40 nM γ-thrombin) is at least 0.0125 mM. In addition, the “effect on γ-thrombin-induced platelet aggregation” value was “returned to pretreatment levels” in test [3] (0.006 mM peptide, 40 nM γ-thrombin) and “completely abolished” in test [3] (0.05 mM peptide, 40 nM γ-thrombin). The “Concentration of Peptide [mM] That Gives 100% Inhibition” value in test [3] (minimal concentration that blocked γ-thrombin-induced platelet aggregation in platelet-rich plasma) was 0.019 mM. In addition, the “concentration that blocks thrombocytin cleavage of rPAR1EC” value in test [4] is given as 0.2 mM. In addition, the “effect on α-thrombin hydrolysis of Sar-Pro-Arg-pNA” value in test [5] is given as “directly blocking α-thrombin's proteolytic activity”. Also, in test [6], the “effect on α-thrombin cleavage of rPAR1EC” value was “inhibits thrombin and thrombocytin cleavage of rPAR1EC”.
